“And” between values parts separate entries of the source, which are not always exact repeats. Equal entries are not always repeated.
Columns and labels:
[1] = test system: human ether‐à‐go‐go channel; conditions: in vitro; cited from earlier work
[2] = test system: patients with advanced solid tumors; test: Dedicated QTc study: serial triplicate Holter ECGs, change from time-matched baseline; type: in vivo, human; conditions: for LSM QTcF Change (95% UCB) from time-matched baseline / LSM QTcI Change (95% UCB) from time-matched baseline / LSM heart rate change (95% UCB) from time-matched baseline: 40 mg single oral dose
Method: The study was conducted at 5 centers across the United States (Montefiore Medical Center, Bronx, New York; Washington University School of Medicine, Saint Louis, Missouri; Stephenson Cancer Center, University of Oklahoma, Oklahoma City, Oklahoma; Mary Crowley Cancer Research Center, Dallas, Texas; and Florida Cancer Specialists/Sarah Cannon Research Institute, Sarasota, Florida) to evaluate the effect of a single oral dose of sapanisertib (40 mg) on the electrocardiographic QT/QTc interval in patients with advanced solid tumors (NCT02197572, clinicaltrials.gov). The primary end point was change from time‐matched baseline in the QTc interval (ΔQTc).
Patients reported to the study sites on day –1 for collection of serial baseline triplicate ECGs prior to sapanisertib administration (described in the ECG Assessments section). […] The patients were equipped with 12 ECG leads to continuously record patient ECG data onto a Holter H12+ ECG recorder. All procedures that were followed on day –1 were consistent with procedures expected for day 1, with the exception of plasma sample collection for PK assessments, since no sapanisertib was administered on day –1. After collection of the 10‐hour time point ECG on day –1, the patients were furloughed from the study site with Holter recorders still attached. These Holter recorders were to remain attached overnight to continue to collect ECG data into day 1.
On cycle 1 day 1, triplicate ECGs and plasma samples for PK were collected from patients ≤15 minutes prior to dosing and at 15 minutes; 30 minutes; and 1‐, 1.5‐, 2‐, 2.5‐, 3‐, 4‐, 6‐, 8‐, and 10‐hour time points after receiving a single oral dose of 40‐mg sapanisertib. The Holter recorders and ECG leads were removed from patients after collection of the 10‐hour time point ECG on day 1, following which patients were furloughed from site. Additional collections of ECGs and plasma samples for PK were conducted at 24 (cycle 1 day 2) and 48 hours (cycle 1 day 3) after dosing. After the first week, that is, cycle 1 day 8, patients had the option to continue to receive treatment with sapanisertib at a dose of 30 mg once weekly in continuous 28‐day cycles until disease progression, unacceptable toxicity, withdrawal of consent, or completion of the 12‐month maximum study duration.
To enable collection of time‐matched ECG and PK data before and after sapanisertib administration, patients reported to the study sites on day –1, during which ECG leads (12 leads) and Holter H12+ ECG recorders were attached. Each planned ECG collection time point was preceded by a 5‐minute supine rest period, after which triplicate ECGs were extracted from the Holter recorders at approximately 2‐ to 5‐minute intervals. Serial triplicate ECGs were collected from 0 to 10 hours, matched to the planned dosing on cycle 1 day 1 predose and postdose ECG and PK time points, to characterize the baseline ECG and QTc interval. All triplicate ECGs were extracted and read centrally (Biotelemetry, Malvern, Pennsylvania). All blood draws for PK were collected after the triplicate ECG collection period.
The baseline characterization of serial triplicate ECG allowed for patient‐specific individual heart rate correction (QTcI) in addition to the Fridericia's ( QTcF=QT/RR3 ) correction that is commonly used in clinical practice. The patient‐specific slopes were calculated using all pairs of QT and RR (time elapsing between two consecutive R waves in an ECG) interval data collected on day –1 and estimated using the linear regression expression: logQT=loga+b∗logRR to calculate the individual slope (b) for each patient. QTcI was then calculated as QTcI=QT/RR^b
ECG analysis was conducted in the primary analysis population, which included patients who had all time points collected on Holter ECG monitoring on day –1 and day 1 of cycle 1, including ECG time points collected on cycle 1 day 1 to cycle 1 day 3 at 24 or 48 hours after dosing that had available baseline comparisons. […]

[3] = after 40 mg dose, 32 evaluable patients

CC(C)n1nc(-c2ccc3oc(N)nc3c2)c2c(N)ncnc21 [sapanisertib]
IC50 [1]: 175 µM
LSM QTcF Change (95% UCB) from time-matched baseline ([2]; 0.25 h after dose): –1.7 (2.2) msec
LSM QTcI Change (95% UCB) from time-matched baseline ([2]; 0.25 h after dose): –2.2 (2.2) msec
LSM heart rate change (95% UCB) from time-matched baseline ([2]; 0.25 h after dose): –0.2 (2.2) bpm
LSM QTcF Change (95% UCB) from time-matched baseline ([2]; 0.5 h after dose): –5.3 (–1.5) msec
LSM QTcI Change (95% UCB) from time-matched baseline ([2]; 0.5 h after dose): –8.3 (–4.0) msec
LSM heart rate change (95% UCB) from time-matched baseline ([2]; 0.5 h after dose): –4.4 (–1.9) bpm
LSM QTcF Change (95% UCB) from time-matched baseline ([2]; 1 h after dose): 1.8 msec and 1.8 (5.6) msec
LSM QTcI Change (95% UCB) from time-matched baseline ([2]; 1 h after dose): –1.8 (2.6) msec
LSM heart rate change (95% UCB) from time-matched baseline ([2]; 1 h after dose): –3.8 (–1.4) bpm
LSM QTcF Change (95% UCB) from time-matched baseline ([2]; 1.5 h after dose): 0.1 (4.0) msec
LSM QTcI Change (95% UCB) from time-matched baseline ([2]; 1.5 h after dose): –2.7 (1.7) msec
LSM heart rate change (95% UCB) from time-matched baseline ([2]; 1.5 h after dose): –3.3 (–0.9) bpm
LSM QTcF Change (95% UCB) from time-matched baseline ([2]; 2 h after dose): –3.7 (0.1) msec
LSM QTcI Change (95% UCB) from time-matched baseline ([2]; 2 h after dose): –5.0 (–0.6) msec
LSM heart rate change (95% UCB) from time-matched baseline ([2]; 2 h after dose): –0.8 (1.5) bpm
LSM QTcF Change (95% UCB) from time-matched baseline ([2]; 2.5 h after dose): –7.4 (–3.6) msec
LSM QTcI Change (95% UCB) from time-matched baseline ([2]; 2.5 h after dose): –7.6 (–3.2) msec
LSM heart rate change (95% UCB) from time-matched baseline ([2]; 2.5 h after dose): 0.1 (2.5) bpm
LSM QTcF Change (95% UCB) from time-matched baseline ([2]; 3 h after dose): –7.6 (–3.7) msec
LSM QTcI Change (95% UCB) from time-matched baseline ([2]; 3 h after dose): –9.1 (–4.6) msec
LSM heart rate change (95% UCB) from time-matched baseline ([2]; 3 h after dose): –0.1 (2.3) bpm
LSM QTcF Change (95% UCB) from time-matched baseline ([2]; 4 h after dose): –8.0 (–4.2) msec
LSM QTcI Change (95% UCB) from time-matched baseline ([2]; 4 h after dose): –7.2 (–2.9) msec
LSM heart rate change (95% UCB) from time-matched baseline ([2]; 4 h after dose): –0.2 (2.2) bpm
LSM QTcF Change (95% UCB) from time-matched baseline ([2]; 6 h after dose): –10.1 (–6.4) msec
LSM QTcI Change (95% UCB) from time-matched baseline ([2]; 6 h after dose): –8.8 (–4.6) msec
LSM heart rate change (95% UCB) from time-matched baseline ([2]; 6 h after dose): 4.8 (7.1) bpm
LSM QTcF Change (95% UCB) from time-matched baseline ([2]; 8 h after dose): –4.2 (–0.3) msec
LSM QTcI Change (95% UCB) from time-matched baseline ([2]; 8 h after dose): –2.2 (2.4) msec
LSM heart rate change (95% UCB) from time-matched baseline ([2]; 8 h after dose): 6.9 (9.4) bpm
LSM QTcF Change (95% UCB) from time-matched baseline ([2]; 10 h after dose): –12.5 (–7.1) msec
LSM QTcI Change (95% UCB) from time-matched baseline ([2]; 10 h after dose): –6.6 (–0.5) msec
LSM heart rate change (95% UCB) from time-matched baseline ([2]; 10 h after dose): 8.6 bpm and 8.6 (12.1) bpm
LSM QTcF Change (95% UCB) from time-matched baseline ([2]; 24 h after dose): 0.8 (4.5) msec
LSM QTcI Change (95% UCB) from time-matched baseline ([2]; 24 h after dose): 7.1 msec and 7.1 (11.4) msec
LSM heart rate change (95% UCB) from time-matched baseline ([2]; 24 h after dose): 12.4 bpm and 12.4 (14.7) bpm
LSM QTcF Change (95% UCB) from time-matched baseline ([2]; 48 h after dose): 1.2 msec and 1.2 (5.8) msec
LSM QTcI Change (95% UCB) from time-matched baseline ([2]; 48 h after dose): 2.8 (8.1) msec
LSM heart rate change (95% UCB) from time-matched baseline ([2]; 48 h after dose): 5.4 (8.3) bpm
Clinically relevant (>20 milliseconds) effect on the QT interval ([2]; 40 mg, patients with advanced solid tumors): does not produce clinically relevant (ie, >20 milliseconds) effects on the QT interval
Patients with PR >200 msec [2, 3]: 1 (3.1) n (%)
Patients with QRS >110 msec [2, 3]: 0 (0) n (%)
Patients with QTcF >450 msec [2, 3]: 2 (6.3) n (%)
Patients with QTcF >480 msec [2, 3]: 0 (0) n (%)
Patients with QTcF >500 msec [2, 3]: 0 (0) n (%)
Patients with QTcI >450 msec [2, 3]: 6 (18.8) n (%)
Patients with QTcI >480 msec [2, 3]: 1 (3.1) n (%)
Patients with QTcI >500 msec [2, 3]: 0 (0) n (%)
Patients with ΔPR >25% at any time point [2, 3]: 1 (3.1) n (%)
Patients with ΔQRS >25% at any time point [2, 3]: 0 (0) n (%)
Patients with ΔQTcF >30 msec at any time point [2, 3]: 2 (6.3) n (%)
Patients with ΔQTcF >60 msec at any time point [2, 3]: 0 (0) n (%)
Patients with ΔQTcI >30 msec at any time point [2, 3]: 5 (15.6) n (%)
Patients with ΔQTcI >60 msec at any time point [2, 3]: 1 (3.1) n (%)
Patients with ΔQTcI between 30 and 60 milliseconds ([2]; after 40 mg dose, of the 6 patients with prolonged QTcI, 32 evaluable): 4 patients

Reference: article PMC7586797, “Phase 1 Study to Evaluate the Effect of the Investigational Anticancer Agent Sapanisertib on the QTc Interval in Patients With Advanced Solid Tumors” (Clinical Pharmacology in Drug Development, 2020)
